Patent US8466170B2, “7-azaindole derivatives” (Merck Patent GmbH, priority 2008, dated 2013)
pIC50: −log10 of the molar value.

Assays:
Assay type in all cases: biochemical
SAPK3 = target: T1, SAPK3 (Homo sapiens, UniProt P53778); experiment: SAPK3 enzyme inhibition; details: Target SAPK3
T1 sequence (P53778 1-367): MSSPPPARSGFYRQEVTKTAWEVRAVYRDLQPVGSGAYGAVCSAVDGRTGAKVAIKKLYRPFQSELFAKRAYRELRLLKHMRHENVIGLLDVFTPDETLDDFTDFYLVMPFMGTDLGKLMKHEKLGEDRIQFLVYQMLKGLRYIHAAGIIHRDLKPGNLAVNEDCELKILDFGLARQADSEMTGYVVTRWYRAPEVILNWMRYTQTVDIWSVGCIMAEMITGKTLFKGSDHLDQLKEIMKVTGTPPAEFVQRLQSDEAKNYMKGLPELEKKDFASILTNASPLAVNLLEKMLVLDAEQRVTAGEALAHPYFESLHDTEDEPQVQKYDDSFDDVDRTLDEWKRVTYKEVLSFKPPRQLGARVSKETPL

GSK3-beta = GSK3-beta (Homo sapiens, UniProt P49841); experiment: Measurement of the GSK3-beta activity; details: Target GSK3-beta; read-out: Inhibition IC50 (enzyme)
Sequence of GSK3-beta (P49841 whole entry, species assumed): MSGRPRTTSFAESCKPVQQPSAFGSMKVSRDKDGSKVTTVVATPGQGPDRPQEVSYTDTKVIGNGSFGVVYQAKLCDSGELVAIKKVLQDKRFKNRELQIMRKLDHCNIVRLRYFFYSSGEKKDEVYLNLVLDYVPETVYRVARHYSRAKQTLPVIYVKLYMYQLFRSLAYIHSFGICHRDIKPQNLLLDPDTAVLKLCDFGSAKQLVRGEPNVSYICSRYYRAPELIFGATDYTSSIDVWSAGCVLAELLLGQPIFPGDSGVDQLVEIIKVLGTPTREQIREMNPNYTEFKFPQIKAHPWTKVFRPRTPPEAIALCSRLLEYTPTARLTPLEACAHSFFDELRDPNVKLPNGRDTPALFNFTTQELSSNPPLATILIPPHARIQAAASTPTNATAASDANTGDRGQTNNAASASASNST
Protocol: The GSK3-beta activity can be measured analogously to WO 2008/078196. GSK3b (5-20 mU diluted in 20 mM MOPS ph 7.5, 1 mM EDTA, […], 0.01% Brj35, 5% glycerol, 0.1% beta-mercaptoethanol, 1 mg/ml of BSA) is measured against phospho-GS2 peptide ([…](PO4)EDEEE) in a final volume of 25.5 μl containing 8 mM MOPS ph 7.0, 0.2 mM EDTA, 20 μM phospho GS2 peptide, 10 mM magnesium acetate and 0.005 mM [33P-g-ATP] (50-1000 cpm/pmol) and is incubated at room temperature for 30 minutes. The assay is stopped by addition of 5 μl of 0.5 M (3%) orthophosphoric acid and is then harvested on P81 unifilter plates with a wash buffer (50 mM orthophosphoric acid).

SGK1 = target: T2, SGK1 (Homo sapiens, UniProt O00141); experiment: SGK1 enzyme inhibition (filter binding method); details: Target SGK1
T2 sequence (O00141 1-431): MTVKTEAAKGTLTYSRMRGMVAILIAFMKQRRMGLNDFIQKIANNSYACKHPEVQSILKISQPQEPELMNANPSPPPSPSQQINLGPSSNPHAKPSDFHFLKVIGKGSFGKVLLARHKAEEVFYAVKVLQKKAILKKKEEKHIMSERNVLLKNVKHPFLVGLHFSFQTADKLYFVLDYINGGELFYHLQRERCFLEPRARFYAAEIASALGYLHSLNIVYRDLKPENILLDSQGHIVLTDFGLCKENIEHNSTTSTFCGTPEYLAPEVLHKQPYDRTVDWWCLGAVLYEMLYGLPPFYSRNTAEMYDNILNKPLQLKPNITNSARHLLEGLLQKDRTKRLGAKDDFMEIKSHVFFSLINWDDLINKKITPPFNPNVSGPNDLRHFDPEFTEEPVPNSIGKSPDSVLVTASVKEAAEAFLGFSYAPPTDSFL
Excerpt: The inhibition of SGK1 protein kinase can be determined in the filter binding method.

AMPK = AMPK enzyme inhibition; details: Target AMPK
MKK1 = MKK1 (Homo sapiens, UniProt Q02750); experiment: MKK1 enzyme inhibition; details: Target MKK1
Sequence of MKK1 (Q02750 whole entry, species assumed): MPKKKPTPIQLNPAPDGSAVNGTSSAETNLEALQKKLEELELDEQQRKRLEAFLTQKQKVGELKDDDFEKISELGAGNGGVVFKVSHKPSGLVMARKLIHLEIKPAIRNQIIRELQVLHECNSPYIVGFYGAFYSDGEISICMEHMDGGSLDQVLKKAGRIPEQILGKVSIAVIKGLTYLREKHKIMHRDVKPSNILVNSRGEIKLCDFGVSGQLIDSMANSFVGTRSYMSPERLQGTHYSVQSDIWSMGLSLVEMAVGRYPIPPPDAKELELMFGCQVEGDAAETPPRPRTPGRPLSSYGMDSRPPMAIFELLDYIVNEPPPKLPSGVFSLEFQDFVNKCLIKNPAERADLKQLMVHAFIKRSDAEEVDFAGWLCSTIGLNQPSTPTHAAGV

CHK2 = CHK2 (Homo sapiens, UniProt O96017); experiment: CHK2 enzyme inhibition; details: Target CHK2
Sequence of CHK2 (O96017 whole entry, species assumed): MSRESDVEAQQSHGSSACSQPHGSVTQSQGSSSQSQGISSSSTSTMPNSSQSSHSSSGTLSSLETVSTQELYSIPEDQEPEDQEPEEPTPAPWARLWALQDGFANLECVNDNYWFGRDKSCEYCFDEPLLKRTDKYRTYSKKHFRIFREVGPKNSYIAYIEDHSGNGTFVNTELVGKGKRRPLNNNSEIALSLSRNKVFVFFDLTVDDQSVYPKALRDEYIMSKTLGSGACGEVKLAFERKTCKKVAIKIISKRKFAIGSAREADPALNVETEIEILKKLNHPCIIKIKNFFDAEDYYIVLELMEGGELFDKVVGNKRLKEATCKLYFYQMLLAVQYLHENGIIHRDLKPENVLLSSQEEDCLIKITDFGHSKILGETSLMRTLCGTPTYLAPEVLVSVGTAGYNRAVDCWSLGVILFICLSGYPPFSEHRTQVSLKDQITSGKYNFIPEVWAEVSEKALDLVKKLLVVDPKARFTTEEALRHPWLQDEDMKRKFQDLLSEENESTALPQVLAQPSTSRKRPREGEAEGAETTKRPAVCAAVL

Met kinase = target: T3, Met kinase (Homo sapiens, UniProt P08581); experiment: Met kinase flashplate method; details: Target Met kinase; read-out: Inhibition IC50 (enzyme)
T3 construct: 6His (N); purchased Upstate 14-526; host or cells: Sf21 insect cells (S. frugiperda), baculovirus
T3 sequence (P08581 974-1390 limits assumed): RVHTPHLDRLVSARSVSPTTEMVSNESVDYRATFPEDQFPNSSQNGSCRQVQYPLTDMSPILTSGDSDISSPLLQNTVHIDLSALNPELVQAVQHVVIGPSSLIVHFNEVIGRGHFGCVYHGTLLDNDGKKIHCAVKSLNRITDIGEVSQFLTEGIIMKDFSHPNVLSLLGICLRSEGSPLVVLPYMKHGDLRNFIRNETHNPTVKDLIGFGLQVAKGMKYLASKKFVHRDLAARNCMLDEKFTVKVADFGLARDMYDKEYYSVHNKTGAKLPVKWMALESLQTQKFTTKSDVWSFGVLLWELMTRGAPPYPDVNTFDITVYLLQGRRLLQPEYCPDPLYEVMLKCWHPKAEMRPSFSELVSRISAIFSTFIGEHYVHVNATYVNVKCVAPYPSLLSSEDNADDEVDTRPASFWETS
Excerpt: According to the manufacturer's data (Met, active, Upstate, catalogue No. 14-526), Met kinase is expressed for the purposes of protein production in insect cells (Sf21; S. frugiperda) and subsequent affinity-chromatographic purification as “N-terminal 6His-tagged” recombinant human protein in a baculovirus expression vector.
The kinase activity can be measured using various available measurement systems. In the scintillation proximity method (Sorg et al., J. of Biomolecular Screening, 2002, 7, 11-19), the flashplate method or the filter binding test, the radioactive phosphorylation of a protein or peptide as substrate is measured using radioactively labelled ATP (^32P-ATP, ^33P-ATP). In the case of the presence of an inhibitory compound, a reduced radioactive signal, or none at all, can be detected. Furthermore, homogeneous time-resolved fluorescence resonance energy transfer (HTR-FRET) and fluoroescence polarisation (FP) technologies can be used as assay methods (Sills et al., J. of Biomolecular Screening, 2002, 191-214).
The test plates used are 96-well Flashplate^R microtitre plates from Perkin Elmer (Cat. No. SMP200). […] The measurement of the bound radioactivity is carried out by means of a scintillation measuring instrument (Topcount NXT, Perkin-Elmer).
The full value used is the inhibitor-free kinase reaction. […] The inhibitory values (IC50) are determined using the RS1_MTS program. […]

| SMILES | pIC50 (SGK1) | also measured |
| --- | --- | --- |
| COc1cccc(CNc2nnc(-c3c[nH]c4ncccc34)o2)c1 [Compound A1, (3-methoxybenzyl)-[5-(1H-pyrrolo[2,3-b]pyridin-3-yl)-1,3,4-oxadiazol-2-yl]amine] | 7.00 to 9.00 | pIC50 (SAPK3): 5.00 to 7.00; pIC50 (GSK3-beta): 7.00 to 9.00; pIC50 (AMPK): 7.00 to 9.00; pIC50 (MKK1): 7.00 to 9.00; pIC50 (CHK2): 7.00 to 9.00 |
| c1ccc(Nc2nnc(-c3c[nH]c4ncccc34)o2)cc1 [Compound A2, phenyl-[5-(1H-pyrrolo[2,3-b]pyridin-3-yl)-1,3,4-oxadiazol-2-yl]amine] | 5.00 to 7.00 |  |
| Nc1nnc(-c2c[nH]c3ncccc23)o1 [Compound A3, 5-(1H-pyrrolo[2,3-b]pyridin-3-yl)-1,3,4-oxadiazol-2-ylamine] | 5.00 to 7.00 |  |
| COc1cccc(CNc2nnc(-c3c[nH]c4ncc(Br)cc34)o2)c1 [Compound A4] | 7.00 to 9.00 | pIC50 (Met kinase): 5.00 to 7.00 |
| Fc1cccc(CNc2nnc(-c3c[nH]c4ncccc34)o2)c1 [Compound A5] | 7.00 to 9.00 | pIC50 (Met kinase): 5.00 to 7.00 |

Now from value to compound, other results behind:

| pIC50 (SGK1) | SMILES | also measured |
| --- | --- | --- |
| 5.00 to 7.00 | COc1cccc(CNc2nnc(-c3c[nH]c4ncc(-c5cn[nH]c5)cc34)o2)c1 [Compound A6] |  |
| 5.00 to 7.00 | COc1cccc(CNc2nnc(-c3c[nH]c4ncccc34)n2Cc2ccccc2)c1 [Compound A9, [4-benzyl-5-(1H-pyrrolo[2,3-b]pyridin-3-yl)-4H-1,2,4-triazol-3-yl]-(3-methoxybenzyl)amine] |  |
| 5.00 to 7.00 | COc1cccc(CNc2nnc(-c3c[nH]c4ncccc34)n2N)c1 [Compound A10, N*3*-(3-methoxybenzyl)-5-(1H-pyrrolo[2,3-b]pyridin-3-yl)-1,2,4-triazole-3,4-diamine] |  |
